Values of other authors as cited in patent US6362007B1, “Methylated, SMD homologous peptides, reactive with the antibodies from sera of living beings affected with systemic lupus erythematosus” (Innogenetics N.V., priority 1997, dated 2002).

Tested on: antibodies in SmD positive sera
Details: James et al. 1994; synthetic octapeptides of SmD1

Row | Substance | SmD positive sera (precipitin positive) reactive
1 | octapeptides 92-112: SmD1 sequence spanning synthetic octapeptides 92-112 (James et al. 1994) (REAVAGRGRGRGRGRGRGRGR; UniProt P62314 92-112, looked up, fragment) | 8 of 9
2 | amino acid 82-90: additional SmD1 epitope in the region of amino acid 82-90 (James et al. 1994) (DVEPKVKSK; UniProt P62314 82-90, looked up, fragment) | 7 of 9
